As a reminder, the inhibition is how much of the control response was suppressed.

In the test the target is T1, human CB2 (hCB2) receptor (Homo sapiens, UniProt P34972).
T1 construct: expressed in transfected cells; host or cells: CHO (Chinese hamster ovary) cells, membranes
The experiment in a line: CB2 binding assay, competitive binding of [3H]WIN 55212-2. The essentials: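 CHO cell membranes expressing hCB2 (15 μg protein) incubated 120 min at 37° C with 0.8 nM [3H]WIN 55212-2 in 50 mM HEPES/Tris pH 7.4, 5 mM MgCl2, 2.5 mM EGTA, 0.1% BSA; nonspecific binding with 10 μM WIN 55212-2. Filtration and scintillation counting; compounds at 1 μM, reported as % inhibition of control specific binding.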

T1 sequence (P34972 whole entry): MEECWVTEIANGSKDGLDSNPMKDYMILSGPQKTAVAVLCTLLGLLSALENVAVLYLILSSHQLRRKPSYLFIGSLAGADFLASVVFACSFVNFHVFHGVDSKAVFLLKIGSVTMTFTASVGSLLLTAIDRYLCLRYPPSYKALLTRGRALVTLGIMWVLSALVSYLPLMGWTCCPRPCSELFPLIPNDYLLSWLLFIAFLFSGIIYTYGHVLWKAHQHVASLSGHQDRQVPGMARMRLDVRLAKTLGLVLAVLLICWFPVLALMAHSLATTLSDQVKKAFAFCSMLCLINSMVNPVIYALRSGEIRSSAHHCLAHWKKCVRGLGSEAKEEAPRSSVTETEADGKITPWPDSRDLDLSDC

On to `CCCCCCN1C(=O)/C(=N\NC(=O)c2ccccc2)c2ccccc21` [Example 6, Benzoic acid [1-n-hexyl-2-oxo-1,2-dihydro-indol-3-ylidene]-hydrazide], for which the “% Inhibition of Control Specific Binding” value (CB2, Test Concentration 1.0E−05 (MD)) was 93%. Further, the “% of Control Specific Binding 1st” value (CB2, Test Concentration 1.0E−05 (MD), 1st determination) is −1.5%. The “% of Control Specific Binding 2nd” value (CB2, Test Concentration 1.0E−05 (MD), 2nd determination) worked out at 15.9%. Moreover, the “% of Control Specific Binding Mean” value (CB2, Test Concentration 1.0E−05 (MD), mean) is recorded as 7.2%. Besides, the “% Inhibition of Control Specific Binding CB2” value (Table 4, concentration not given) is listed as 93%. Also, the inhibition at 1 µM (read-out: % inhibition hCB2 receptor, at 1 μM, specific binding of [3H]-WIN55212-2, CHO membranes) worked out at 92.8 ± 8.7%. For the same compound, the inhibition at 10 µM (read-out: % inhibition hCB2 receptor, at 10 μM, specific binding of [3H]-WIN55212-2) was determined as 92.8 ± 8.7%.

These data come from patent US9079854B2 (priority 2007, dated 2015).
